Experimental data from PMC8677773, “Comprehensive exploration of chemical space using trisubstituted carboranes” (Scientific Reports, 2021).

Tested on: recombinant rabies virus strain 1088 expressing gaussia luciferase (1088/GLuc)
Experiment: microbe, parasite or virus in culture
Assay type: cell-based
Conditions: Lyssavirus rabies, N2a, 72 h, read-out: RABV IC50 (concentration required to inhibit the relative light units by 50%)

NC(=O)c1nc(F)c[nH]c1=O [Favipiravir]
IC50: 38 µM
